From ChEMBL document CHEMBL1201862, “PubChem BioAssay data set” (2004)
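Dose response: 5 concentrations. Exposure: 48 h. Format: 96-well plates. Endpoint: linear interpolation; highest concentration if not reached. GI50 is the concentration that inhibits growth by half.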 Calls of active or inactive are those of the source. Cut-off read from the data, not from the text of the source: active = GI50 up to about 1.1 µM and inactive = higher.

Columns and labels:
Assay in all cases: NCI tumour cell line growth inhibition, 48 h
SK-MEL-28 = system: SK-MEL-28
Hs-578T = system: Hs-578T
NCI-H460 = system: NCI-H460
LOX IMVI = system: LOX IMVI
CCRF-CEM = system: CCRF-CEM
MOLT-4 = system: MOLT-4
OVCAR-3 = system: OVCAR-3
TK-10 = system: TK-10
HOP-92 = system: HOP-92
HL-60 = system: HL-60
NCI/ADR-RES = system: NCI/ADR-RES
SK-OV-3 = system: SK-OV-3
OVCAR-8 = system: OVCAR-8
CAKI-1 = system: CAKI-1
NCI-H522 = system: NCI-H522
COLO 205 = system: COLO 205
SF-268 = system: SF-268
EKVX = system: EKVX
IGROV-1 = system: IGROV-1
SNB-75 = system: SNB-75

| SMILES | GI50 (SK-MEL-28) | GI50 (Hs-578T) | GI50 (NCI-H460) | GI50 (LOX IMVI) | GI50 (CCRF-CEM) | GI50 (MOLT-4) | GI50 (OVCAR-3) | GI50 (TK-10) | GI50 (HOP-92) | GI50 (HL-60) | GI50 (NCI/ADR-RES) | GI50 (SK-OV-3) | GI50 (OVCAR-8) | GI50 (CAKI-1) | GI50 (NCI-H522) | GI50 (COLO 205) | GI50 (SF-268) | GI50 (EKVX) | GI50 (IGROV-1) | GI50 (SNB-75) |
| --- | --- | --- | --- | --- | --- | --- | --- | --- | --- | --- | --- | --- | --- | --- | --- | --- | --- | --- | --- | --- |
| Cc1cn(C2CC(OC(=O)c3ccc(Cl)cc3)C(COC(=O)c3ccc(Cl)cc3)O2)c(=O)[nH]c1=O (stereo not given) | > 100 µM (inactive) | > 100 µM (inactive) | > 100 µM (inactive) | > 100 µM (inactive) | > 100 µM (inactive) | > 100 µM (inactive) | > 100 µM (inactive) | > 100 µM (inactive) | > 100 µM (inactive) | > 100 µM (inactive) | > 100 µM (inactive) | > 100 µM (inactive) | > 100 µM (inactive) | > 100 µM (inactive) | > 100 µM (inactive) | > 100 µM (inactive) | > 100 µM (inactive) | > 100 µM (inactive) | > 100 µM (inactive) | > 100 µM (inactive) |
| CC(=N\N=C\c1ccccn1)/C(C)=N/N=C/c1ccccn1 | > 100 µM (inactive) | > 100 µM (inactive) | > 100 µM (inactive) | > 100 µM (inactive) | > 100 µM (inactive) | > 10 µM (inactive) | > 100 µM (inactive) | > 100 µM (inactive) | > 100 µM (inactive) | > 100 µM (inactive) | > 100 µM (inactive) | > 100 µM (inactive) | > 100 µM (inactive) | > 100 µM (inactive) | > 100 µM (inactive) | > 100 µM (inactive) | > 100 µM (inactive) | > 100 µM (inactive) | > 100 µM (inactive) | > 100 µM (inactive) |
| COc1ccccc1C(=O)c1c(NCc2ccccc2)c(=O)c1=O | 18.1 µM (inactive) | > 100 µM (inactive) | > 100 µM (inactive) | 29.9 µM (inactive) | 26.1 µM (inactive) | 23.4 µM (inactive) | > 100 µM (inactive) | > 100 µM (inactive) | > 100 µM (inactive) | 21 µM (inactive) | > 100 µM (inactive) | > 100 µM (inactive) | > 100 µM (inactive) | 35.2 µM (inactive) | 11.5 µM (inactive) | 28.3 µM (inactive) | > 100 µM (inactive) | > 100 µM (inactive) | 9.55 µM (inactive) | > 100 µM (inactive) |
| CN(CC(=O)O)c1ncc2c(n1)CCCC2 | > 100 µM (inactive) | > 100 µM (inactive) | > 100 µM (inactive) | > 100 µM (inactive) | > 100 µM (inactive) | > 100 µM (inactive) | > 100 µM (inactive) | > 100 µM (inactive) | > 100 µM (inactive) | > 100 µM (inactive) | > 100 µM (inactive) | > 100 µM (inactive) | > 100 µM (inactive) | > 100 µM (inactive) | > 100 µM (inactive) | > 100 µM (inactive) | > 100 µM (inactive) | > 100 µM (inactive) | > 100 µM (inactive) | > 100 µM (inactive) |
| CC(C)C(OC(=O)c1ccc(NCC2=CC(=O)C=CC2=O)cc1)C(C)C | 4.05 µM (inactive) | 3.68 µM (inactive) | 14.6 µM (inactive) | 5.15 µM (inactive) | 0.474 µM (active) | 2.01 µM (inactive) | 4.12 µM (inactive) | 4.25 µM (inactive) | 1.79 µM (inactive) | 1.25 µM (inactive) | 4.3 µM (inactive) | 13.8 µM (inactive) | 3.03 µM (inactive) | 1.4 µM (inactive) | 1.22 µM (inactive) | 2.79 µM (inactive) | 12.1 µM (inactive) | 8.26 µM (inactive) | 1.81 µM (inactive) | 4.35 µM (inactive) |
| CC(C)NC(=O)OCc1c(COC(=O)NC(C)C)c(-c2ccc[n+](COC(=O)C3CCCCC3)c2)n2c1CCC2 | > 100 µM (inactive) | > 100 µM (inactive) | 27.9 µM (inactive) | 31.6 µM (inactive) | > 100 µM (inactive) | 45.5 µM (inactive) | > 100 µM (inactive) | 94.6 µM (inactive) | 39.4 µM (inactive) | > 100 µM (inactive) | 60 µM (inactive) | 39.1 µM (inactive) | 51.2 µM (inactive) | 20.7 µM (inactive) | 25.1 µM (inactive) | 93.1 µM (inactive) | 42.6 µM (inactive) | > 100 µM (inactive) | > 100 µM (inactive) | 46.8 µM (inactive) |
